{"source": "patent US20220040160A1", "about": "“COMBINATION OF HISTONE DEACETYLASE INHIBITOR AND IMMUNOTHERAPY” (The United States of America,as represented by the …, priority 2016, published 2022)", "key": {"[1]": {"tested_on": "LNCaP prostate carcinoma cells", "assay": "Antigen-specific CTL lysis, overnight 111In-release assay", "type": "cell-based, human", "conditions": "E:T=30:1", "experimental": "(§1) Vorinostat and entinostat were obtained from Selleck Chemicals. Adherent tumor cells in log-growth phase were exposed daily to vehicle (DMSO) or vorinostat at the indicated concentrations for 5 h, over 4 consecutive days. At the end of each treatment, cells were washed in fresh medium and returned to incubation at 37° C. with 5% CO2. Alternatively, cells were continuously exposed to vehicle (DMSO) or entinostat at the indicated concentrations for 72 h.\n(§2) Carcinoembryonic antigen (CEA)-specific CTLs recognize the CEA peptide epitope […] (CAP-1) (SEQ ID NO: 1) (Tsang et al., J. Natl. Cancer Inst., 87(13): 982-990 (1995)). Prostate-specific antigen (PSA)-specific CTLs recognize the PSA peptide epitope […] (SEQ ID NO: 2) (Correale et al., J. Natl. Cancer Inst., 89(4): 293-300 (1997)). The mucin-1 (MUC-1)-specific CD8^+ CTL line, designated MUC-1 CTL, recognizes the MUC-1 peptide epitope […] (SEQ ID NO: 3) (Tsang et al., Clin. Cancer Res., 10(6): 2139-2149 (2004)). Brachyury-specific CTLs recognize the brachyury peptide epitope […] (T-p2) (SEQ ID NO: 4) (Tucker et al., Cancer Immunol. Immunother., 63(12): 1307-1317 (2014)). All T-cell lines were HLA-A2-restricted.\nCarcinoma cells exposed to vorinostat, entinostat, or vehicle (DMSO) were labeled with ^111In prior to being used as targets for direct lysis by effector CTLs at an effector-to-target ratio of 30:1 in a standard overnight cytotoxicity ^111In-release assay (Gameiro et al., Oncoimmunology, 3: e28643 (2014)).\nThe effect of clinically relevant vorinostat exposure on prostate and breast carcinoma cells' sensitivity to antigen-specific CTL-mediated lysis was examined. LNCaP and MDA-MB-231 were exposed to vorinostat or to vehicle as before, prior to being used as targets for antigen-specific CTL lysis, using CEA-, brachyury-, MUC-1-, or PSA-specific CD8^+ T cells as effector cells."}, "[2]": {"tested_on": "ER stress response element (ERSE)", "assay": "Luciferase ER stress reporter assay in LNCaP clones", "type": "cell-based, human", "conditions": "designated concentrations", "experimental": "as §1"}, "[3]": {"tested_on": "prostate and breast carcinoma cells", "assay": "NK cell mediated lysis of carcinoma cells", "type": "cell-based, human", "conditions": "after clinically relevant exposure", "experimental": "Human prostate (LNCaP), breast (MDA-MB-231), and lung (H460) carcinoma cells were exposed to vorinostat or vehicle (DMSO) and the percent lysis was determined. At the end of treatment, the cells were used as targets in a lysis assay wherein NK cells isolated from human PBMCs were used as effectors (varying E:T ratios as indicated in FIG. 7)."}, "[4]": {"tested_on": "non-small cell lung cancer (NSCLC)", "conditions": "entinostat given with the DNMT inhibitor azacitidine; subsequent therapies given immediately after epigenetic therapy; cited from earlier work"}, "[5]": {"tested_on": "HDAC enzymes (isoforms 1-11)", "assay": "HDAC activity assay (EpiQuik colorimetric kit) on nuclear extracts of treated carcinoma cells", "type": "cell-based, human", "conditions": "1 or 3 μM, 5 h daily over 4 days, at 96 h, vs DMSO", "experimental": "(§3) Vorinostat and entinostat were obtained from Selleck Chemicals.\nChanges in the nuclear enzyme activity of HDAC isoforms 1-11 following vorinostat treatment of MDA-MB-231 and LNCaP cells were determined using the colorimetric EpiQuik HDAC Activity/Inhibition Assay Kit (Epigentek). Briefly, 10 μg of extracted nuclear HDAC proteins were incubated with acetylated HDAC substrate for 90 min at 37° C. HDAC deacetylated products were detected following sequential incubation with capture and detection antibodies, according to the manufacturer's specifications.\n(§4) Therefore, the in vitro effect of clinically relevant exposure of human prostate (LNCaP) and breast (MDA-MB-231) carcinoma cells to vorinostat on the activity of HDAC enzymes (isoforms 1-11), cellular proliferation, and viability was examined. Tumor cells were exposed daily for 5 h to 1 μM or 3 μM vorinostat, or vehicle (DMSO) over 4 consecutive days, mimicking the range of vorinostat exposure (Cmax, AUC) attained in cancer patients after oral once daily intake of 400 mg (Iwamoto et al., Cancer Chemother. Pharmacol., 72(3): 493-508 (2013)). […] Vorinostat concentration of 3 μM was used for all subsequent experiments."}, "[6]": {"tested_on": "LNCaP prostate carcinoma cells", "assay": "Cell growth and viability, trypan blue count / Live-Dead flow cytometry", "type": "cell-based", "conditions": "1 or 3 μM, 5 h daily over 4 days", "experimental": "as §1\n(§5) Tumor cells were exposed to DMSO or vorinostat as described above. Cells were harvested daily and viable cells were counted by trypan blue exclusion using a Cellometer Auto T4 automated cell counter (Nexcelom Bioscience). Cellular viability was confirmed by flow cytometry using Live/Dead exclusion, according to manufacturer's instructions (Invitrogen).\nas §4"}, "[7]": {"tested_on": "MDA-MB-231 breast carcinoma cells", "assay": "Cell growth and viability, trypan blue count / Live-Dead flow cytometry", "type": "cell-based", "conditions": "1 or 3 μM, 5 h daily over 4 days", "experimental": "as §1, §5, §4"}, "[8]": {"tested_on": "MDA-MB-231 breast carcinoma cells", "conditions": "brachyury-specific CTL, 3 μM", "experimental": "as §1\nCarcinoembryonic antigen (CEA)-specific CTLs recognize the CEA peptide epitope […] (CAP-1) (SEQ ID NO: 1) (Tsang et al., J. Natl. Cancer Inst., 87(13): 982-990 (1995)). Prostate-specific antigen (PSA)-specific CTLs recognize the PSA peptide epitope […] (SEQ ID NO: 2) (Correale et al., J. Natl. Cancer Inst., 89(4): 293-300 (1997)). The mucin-1 (MUC-1)-specific CD8^+ CTL line, designated MUC-1 CTL, recognizes the MUC-1 peptide epitope […] (SEQ ID NO: 3) (Tsang et al., Clin. Cancer Res., 10(6): 2139-2149 (2004)). Brachyury-specific CTLs recognize the brachyury peptide epitope […] […]\nSilencer® siRNA and negative control siRNA were used to silence HDAC1, ERN1, and PERK in MDA-MB-231 carcinoma cells, according to the manufacturer's instructions (Life Technologies). […] Detection and quantification of band intensity were performed with the Odyssey Infrared Imaging System (LI-COR Biotechnology). […]"}, "[9]": {"tested_on": "HLA-A2 negative AsPC-1 pancreatic carcinoma cells", "assay": "Antigen-specific CTL lysis, HLA-restriction control", "type": "cell-based, human", "conditions": "cells exposed to vehicle or vorinostat 3 μM", "experimental": "as §1\nas §2, with “HLA-A2-restricted. […]” for “HLA-A2-restricted.”"}, "[10]": {"tested_on": "antigen processing machinery (APM) components", "assay": "Flow cytometry of APM components and surface markers in MDA-MB-231 cells", "type": "cell-based, human", "experimental": "as §3\nCell-surface and intracytoplasmic staining was performed as previously described (Ogino et al., J. Immunol. Methods, 278(1-2): 33-44 (2003)). Surface staining of tumor cells was performed using the primary labeled monoclonal antibodies HLA-A2-FITC, ICAM-1 (CD54)-PE, CEA (CD66)-FITC, MUC-1 (CD227)-FITC, and the appropriate isotype-matched controls (BD Biosciences). For intracellular analysis of antigen processing machinery (APM) components, mouse IgG1 (MK2-23) isotype control, LMP2 (SY-1)-, LMP7 (HB2)-, TAP-1 (NOB1)-, calnexin (TO-5)-, β2-microglobulin (L368), and tapasin (TO-3)-specific monoclonal antibodies were developed and characterized as described (Bandoh et al., Tissue Antigens, 66(3): 185-194 (2005); Ogino et al., Tissue Antigens, 62(5): 385-393 (2003); and Wang et al., J. Immunol. Methods, 299(1-2): 139-151 (2005)). Cellular fluorescence of 3×10^4 cells was examined on a FACSCalibur flow cytometer using CellQuest software (BD Biosciences).\nCTL killing of tumor targets requires T-cell recognition of specific major histocompatibility complex (MHC) Class I/CD8^+ restricted epitope complexes on the surface of tumor cells, an event determined by the cooperative interactions of multiple APM components. […] To test this hypothesis, MDA-MB-231 carcinoma cells were exposed to vorinostat or to vehicle as before. At the end of treatment, cells were examined by flow cytometry for intracellular expression of 6 APM components (FIG. 3)."}, "[11]": {"tested_on": "H460 lung carcinoma cells", "assay": "Avelumab (anti-PD-L1) mediated ADCC with NK effectors", "type": "cell-based, human", "conditions": "3 μM, 5 h daily, 4 days, anti-PD-L1 vs isotype control", "experimental": "Lung (H460) and pancreatic (AsPC-1) carcinoma cells were exposed daily for 5 h to vorinostat (3 uM, black circles and bars) or DMSO (open circles and bars) for 4 consecutive days prior to being used as targets PDL-1-mediated ADCC. Upper panel: cell-surface expression of PDL1 in carcinoma targets. Middle panel: NK lysis in the presence of anti-PDL1 or isotype control Ab. Lower panel: H460 lysis in the presence of anti-PDL1 or isotype control antibodies using NK effector cells pre-incubated with anti-CD16 mAb. Results are presented as mean±S.E.M. from 3 replicate wells and are representative of 2-4 independent experiments. Asterisks denote statistical significance relative to controls (2-way ANOVA).\nHuman lung (H460) carcinoma cells were exposed to vorinostat and isotype control, anti-CD16, or anti-PD-L1 (avelumab)."}, "[12]": {"conditions": "MDA-MB-231, 3 μM, 96 h, intracellular flow cytometry"}}, "data": [{"compound": "Nc1ccccc1NC(=O)c1ccc(CNC(=O)OCc2cccnc2)cc1", "note": "[entinostat]", "values": [{"measurement": "sensitivity to CTL-mediated killing (PSA-specific CTL)", "setting": "[1]; entinostat 500 nM, similar to vorinostat 3 μM, P<0.05", "result": "increased sensitivity"}, {"measurement": "activation of ERSE (firefly/renilla luciferase ratio normalized to DMSO)", "setting": "[2]; entinostat continuous exposure 72 h", "result": "activated ERSE in an exposure-dependent manner"}, {"measurement": "sensitivity to NK cell mediated lysis in vitro", "setting": "[3]", "result": "more sensitive"}, {"measurement": "patients with major objective responses to subsequent anticancer therapies", "setting": "[4]", "result": "4 out of 19"}]}, {"compound": "O=C(CCCCCCC(=O)Nc1ccccc1)NO", "note": "[vorinostat]", "values": [{"measurement": "HDAC activity", "setting": "[5]; LNCaP prostate carcinoma cells, P=0.0006", "result": "significantly decreased"}, {"measurement": "HDAC activity", "setting": "[5]; MDA-MB-231 breast carcinoma cells, P=0.0046", "result": "significantly decreased"}, {"measurement": "cellular viability", "setting": "[6]; at 96 h", "result": "no significant effect"}, {"measurement": "cellular proliferation", "setting": "[6]; vs vehicle, P<0.0001", "result": "significantly decreased"}, {"measurement": "cellular viability", "setting": "[7]; at 96 h", "result": "no significant effect"}, {"measurement": "cellular proliferation", "setting": "[7]; vs vehicle, P<0.0001", "result": "significantly decreased"}, {"measurement": "sensitivity to CTL-mediated lysis targeting MUC-1", "setting": "[1]; 3 μM, 5 h daily, 4 days, P<0.0001", "result": "significantly more sensitive"}, {"measurement": "sensitivity to CTL-mediated lysis targeting brachyury", "setting": "[1]; 3 μM, 5 h daily, 4 days, P=0.0004", "result": "significantly more sensitive"}, {"measurement": "sensitivity to CTL-mediated lysis targeting PSA", "setting": "[1]; 3 μM, 5 h daily, 4 days, P=0.0011", "result": "significantly more sensitive"}, {"measurement": "sensitivity to CTL-mediated lysis targeting CEA", "setting": "[1]; 3 μM, 5 h daily, 4 days, P=0.002", "result": "significantly more sensitive"}, {"measurement": "CTL lysis relative to vehicle control", "setting": "[8]; HDAC1-silenced cells", "result": "did not further increase"}, {"measurement": "increase in CTL sensitivity relative to vehicle controls", "setting": "[8]; control siRNA, E:T 30:1, P=0.0024", "result": 2, "unit": "fold"}, {"measurement": "CTL lysis of HLA-A2 negative targets", "setting": "[9]", "result": "absence of significant lysis"}, {"measurement": "increase in Tapasin expression", "setting": "[10]; [12]", "result": 22, "unit": "%"}, {"measurement": "increase in expression of LMP2", "setting": "[10]; [12]", "result": "≥ 25", "unit": "%"}, {"measurement": "increase in expression of LMP7", "setting": "[10]; [12]", "result": "≥ 25", "unit": "%"}, {"measurement": "increase in expression of TAP1", "setting": "[10]; [12]", "result": "≥ 25", "unit": "%"}, {"measurement": "increase in expression of calnexin", "setting": "[10]; [12]", "result": "≥ 25", "unit": "%"}, {"measurement": "increase in expression of β2-microglobulin", "setting": "[10]; [12]", "result": "≥ 25", "unit": "%"}, {"measurement": "expression of CEA on the surface of tumor cells", "setting": "[10]; upon exposure to vorinostat", "result": "Increased expression"}, {"measurement": "expression of HLA class I antigens on the surface of tumor cells", "setting": "[10]; upon exposure to vorinostat", "result": "Increased expression"}, {"measurement": "expression of ICAM-1 on the surface of tumor cells", "setting": "[10]; upon exposure to vorinostat", "result": "Increased expression"}, {"measurement": "expression of MUC-1 on the surface of tumor cells", "setting": "[10]; upon exposure to vorinostat", "result": "Increased expression"}, {"measurement": "activation of ERSE (firefly/renilla luciferase ratio normalized to DMSO)", "setting": "[2]; vorinostat 5 h daily for 4 days", "result": "activated ERSE in a dose-dependent manner"}, {"measurement": "sensitivity to NK cell mediated lysis in vitro", "setting": "[3]", "result": "more sensitive"}, {"measurement": "avelumab-mediated ADCC", "setting": "[11]", "result": "increases"}]}]}
